Experimental data taken from ChEMBL document CHEMBL2434841, “Computational neural network analysis of the affinity of 2-pyridyl-3,5-diaryl pyrroles analogs for the human glucagon receptor using density functional theory” (Med Chem Res, 2013).

target: Glucagon receptor (Homo sapiens, UniProt P47871); assay: Antagonist activity at human glucagon receptor
Sequence (P47871 whole entry): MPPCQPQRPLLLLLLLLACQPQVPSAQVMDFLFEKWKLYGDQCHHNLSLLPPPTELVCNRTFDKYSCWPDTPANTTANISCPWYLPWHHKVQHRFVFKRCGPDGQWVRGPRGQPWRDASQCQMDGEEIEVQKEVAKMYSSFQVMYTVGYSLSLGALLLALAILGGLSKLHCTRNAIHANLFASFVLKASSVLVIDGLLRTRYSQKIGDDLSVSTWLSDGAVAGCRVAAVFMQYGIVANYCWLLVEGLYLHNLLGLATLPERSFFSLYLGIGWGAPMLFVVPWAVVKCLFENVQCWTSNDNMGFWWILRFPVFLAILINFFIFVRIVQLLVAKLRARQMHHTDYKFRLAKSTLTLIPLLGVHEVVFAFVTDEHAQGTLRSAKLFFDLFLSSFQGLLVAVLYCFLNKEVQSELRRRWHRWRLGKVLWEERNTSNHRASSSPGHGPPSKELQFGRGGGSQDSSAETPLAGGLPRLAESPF

Compound | IC50 [nM]
Clc1ccc(-c2cc(-c3ccc(Cl)cc3)c(-c3ccncc3)[nH]2)cc1 | 160
CSc1ccc(C2=NC(c3ccncc3)=C(c3ccc(F)cc3)C2)cc1 | 1230
Clc1ccc(-c2cc(-c3ccccc3Br)c(-c3ccncc3)[nH]2)cc1 | 1000
CCCOc1ccc(Br)cc1-c1cc(-c2ccc(Cl)cc2)[nH]c1-c1ccncc1 | 1440
COc1ccccc1-c1cc(-c2ccc(Cl)cc2)[nH]c1-c1ccncc1 | 2650
Clc1ccc(-c2cc(-c3ccc(Br)cc3)c(-c3ccncc3)[nH]2)cc1 | 301
Cc1cc(-c2ccc(F)cc2)c(-c2ccncc2)[nH]1 | 321
COc1ccc(-c2cc(-c3ccc(Cl)cc3)[nH]c2-c2ccncc2)cc1 | 1150
C[S+]([O-])c1ccc(C2=NC(c3ccncc3)=C(c3ccc(F)cc3)C2)cc1 (stereo not drawn) | 671
Fc1ccc(-c2cc(-c3ccc(Cl)cc3Cl)[nH]c2-c2ccncc2)cc1 | 421
N#Cc1ccc(-c2cc(-c3ccc(F)cc3)c(-c3ccncc3)[nH]2)cc1 | 50
COc1cccc(-c2cc(-c3ccc(Cl)cc3)[nH]c2-c2ccncc2)c1 | 421
Clc1ccc(-c2cc(-c3cccc(Br)c3)c(-c3ccncc3)[nH]2)cc1 | 80.2
Nc1ccc(-c2cc(-c3ccc(F)cc3)c(-c3ccncc3)[nH]2)cc1 | 190
C[S+]([O-])c1ccc(-c2cc(-c3ccncc3)c(-c3ccc(F)cc3)[nH]2)cc1 (stereo not drawn) | 5.31
Fc1ccc(-c2cc[nH]c2-c2ccncc2)cc1 | 160
COc1ccc(-c2cc(-c3ccc(F)cc3)c(-c3ccncc3)[nH]2)cc1 | 2810

Compound | IC50 [nM]
Fc1ccc(-c2cc(-c3ccc(Cl)cc3)[nH]c2-c2ccncc2)cc1 | 1400
Fc1ccc(-c2cc(C3CCCCC3)[nH]c2-c2ccncc2)cc1 | 180
O=C(O)c1ccc(-c2cc(-c3ccc(F)cc3)c(-c3ccncc3)[nH]2)cc1 | 90.2
CSc1ccc(-c2cc(-c3ccncc3)c(-c3ccc(F)cc3)[nH]2)cc1 | 44.1
CC(C)COc1ccccc1-c1cc(-c2ccc(Cl)cc2)[nH]c1-c1ccncc1 | 3770
C=CCOc1ccccc1-c1cc(-c2ccc(Cl)cc2)[nH]c1-c1ccncc1 | 4740
Cc1ccc(-c2cc(-c3ccc(F)cc3)c(-c3ccncc3)[nH]2)cc1 | 1690
Clc1ccc(-c2cc(-c3ccccc3)c(-c3ccncc3)[nH]2)cc1 | 210
Fc1ccc(-c2cc(-c3ccc(F)cc3)c(-c3ccncc3)[nH]2)cc1 | 340
Fc1ccc(-c2cc(-c3ccccc3)[nH]c2-c2ccncc2)cc1 | 802
CCOc1ccccc1-c1cc(-c2ccc(Cl)cc2)[nH]c1-c1ccncc1 | 14200
O=[N+]([O-])c1ccc(-c2cc(-c3ccc(F)cc3)c(-c3ccncc3)[nH]2)cc1 | 50
CCc1ccc(-c2cc(-c3ccc(F)cc3)c(-c3ccncc3)[nH]2)cc1 | 1360
Fc1ccc(-c2cc(-c3cccc(Cl)c3)[nH]c2-c2ccncc2)cc1 | 421
CCOC(=O)c1ccc(-c2cc(-c3ccc(F)cc3)c(-c3ccncc3)[nH]2)cc1 | 260
CCCOc1ccccc1-c1cc(-c2ccc(Cl)cc2)[nH]c1-c1ccncc1 | 2840
